Reference: ChEMBL document CHEMBL3885881, “DrugMatrix”

Species: Rattus norvegicus
Test: DrugMatrix - Regimen: Daily Repeat
Format: toxicity, organism-based, Sprague-Dawley
Design: regimen Daily Repeat, gender Male, age 6-8 weeks
Conditions: in vivo, po, route oral GAVAGE, vehicle .5 % CMC; for ABSOLUTE BASOPHIL / ABSOLUTE EOSINOPHIL / ABSOLUTE LYMPHOCYTE / ABSOLUTE MONOCYTE / ABSOLUTE SEGMENTED NEUTROPHIL / BASOPHIL / EOSINOPHIL / ERYTHROCYTE COUNT / HEMATOCRIT / HEMOGLOBIN / LEUKOCYTE COUNT / LYMPHOCYTE / MEAN CORPUSCULAR HEMOGLOBIN / MEAN CORPUSCULAR HEMOGLOBIN CONCENTRATION / MEAN CORPUSCULAR VOLUME / MONOCYTE / NEUTROPHIL / NUCLEATED RED BLOOD CELLS / PLATELET COUNT: tissue Blood; for ALANINE AMINOTRANSFERASE / ALBUMIN / ALKALINE PHOSPHATASE / ASPARTATE AMINOTRANSFERASE / BLOOD UREA NITROGEN / CARBON DIOXIDE / CHLORIDE / CHOLESTEROL / CREATINE PHOSPHOKINASE / CREATININE / GLUCOSE / LACTATE DEHYDROGENASE / LIPASE / PHOSPHORUS / POTASSIUM / SODIUM / TOTAL BILIRUBIN / TOTAL PROTEIN / URIC ACID: tissue Plasma
[1] = 0 mg/kg, 72 h, dose level Control, time 3 day
[2] = 0 mg/kg, 120 h, dose level Control, time 5 day
[3] = 20 mg/kg, 72 h, dose level Low, time 3 day
[4] = 20 mg/kg, 120 h, dose level Low, time 5 day

## Clc1ccc2c(c1)C(N1CCNCC1)=Nc1ccccc1O2 [AMOXAPINE]
[1]
  ABSOLUTE BASOPHIL: 0 CELLS/uL
  ABSOLUTE EOSINOPHIL: 32.5 CELLS/uL
  ABSOLUTE LYMPHOCYTE: 13494.17 CELLS/uL
  ABSOLUTE MONOCYTE: 474 CELLS/uL
  ABSOLUTE SEGMENTED NEUTROPHIL: 1932.67 CELLS/uL
  BASOPHIL: 0%
  EOSINOPHIL: 0.17%
  ERYTHROCYTE COUNT: 5.45 x10E6/uL
  HEMATOCRIT: 34.32%
  HEMOGLOBIN: 13.82 G/DL
  LEUKOCYTE COUNT: 15.93 x10E3/uL
  LYMPHOCYTE: 84.83%
  MEAN CORPUSCULAR HEMOGLOBIN: 25.38 pg
  MEAN CORPUSCULAR HEMOGLOBIN CONCENTRATION: 40.27 G/DL
  MEAN CORPUSCULAR VOLUME: 63.05 fL
  MONOCYTE: 3%
  NEUTROPHIL: 12%
  NUCLEATED RED BLOOD CELLS: 0.67 /100WBC
  PLATELET COUNT: 1188.5 x10E3/uL
  ALANINE AMINOTRANSFERASE: 54.83 u/L
  ALBUMIN: 4.22 G/DL
  ALKALINE PHOSPHATASE: 427.67 u/L
  ASPARTATE AMINOTRANSFERASE: 86.5 u/L
  BLOOD UREA NITROGEN: 15.33 mg/dL
  CARBON DIOXIDE: 24.83 mmol/L
  CHLORIDE: 102.33 MEQ/L
  CHOLESTEROL: 71.67 mg/dL
  CREATINE PHOSPHOKINASE: 442.5 u/L
  CREATININE: 0.19 mg/dL
  GLUCOSE: 160.67 mg/dL
  LACTATE DEHYDROGENASE: 236.5 u/L
  LIPASE: 9 u/L
  PHOSPHORUS: 11.97 mg/dL
  POTASSIUM: 6.2 MEQ/L
  SODIUM: 142.85 MEQ/L
  TOTAL BILIRUBIN: 0.2 mg/dL
  TOTAL PROTEIN: 5.8 G/DL
  URIC ACID: 1.3 mg/dL
[2]
  ABSOLUTE BASOPHIL: 0 CELLS/uL
  ABSOLUTE EOSINOPHIL: 114.5 CELLS/uL
  ABSOLUTE LYMPHOCYTE: 14614 CELLS/uL
  ABSOLUTE MONOCYTE: 173 CELLS/uL
  ABSOLUTE SEGMENTED NEUTROPHIL: 1048.5 CELLS/uL
  BASOPHIL: 0%
  EOSINOPHIL: 0.67%
  ERYTHROCYTE COUNT: 5.66 x10E6/uL
  HEMATOCRIT: 35.52%
  HEMOGLOBIN: 14.27 G/DL
  LEUKOCYTE COUNT: 15.95 x10E3/uL
  LYMPHOCYTE: 91.33%
  MEAN CORPUSCULAR HEMOGLOBIN: 25.23 pg
  MEAN CORPUSCULAR HEMOGLOBIN CONCENTRATION: 40.2 G/DL
  MEAN CORPUSCULAR VOLUME: 62.7 fL
  MONOCYTE: 1.17%
  NEUTROPHIL: 6.83%
  NUCLEATED RED BLOOD CELLS: 0.33 /100WBC
  PLATELET COUNT: 1229 x10E3/uL
  ALANINE AMINOTRANSFERASE: 58.67 u/L
  ALBUMIN: 4.32 G/DL
  ALKALINE PHOSPHATASE: 382.5 u/L
  ASPARTATE AMINOTRANSFERASE: 81.67 u/L
  BLOOD UREA NITROGEN: 17.67 mg/dL
  CARBON DIOXIDE: 27.17 mmol/L
  CHLORIDE: 102.33 MEQ/L
  CHOLESTEROL: 63.67 mg/dL
  CREATINE PHOSPHOKINASE: 227.67 u/L
  CREATININE: 0.23 mg/dL
  GLUCOSE: 155.33 mg/dL
  LACTATE DEHYDROGENASE: 146.5 u/L
  LIPASE: 10.67 u/L
  PHOSPHORUS: 11.93 mg/dL
  POTASSIUM: 6.85 MEQ/L
  SODIUM: 143.95 MEQ/L
  TOTAL BILIRUBIN: 0.18 mg/dL
  TOTAL PROTEIN: 6.02 G/DL
  URIC ACID: 1.63 mg/dL
[3]
  ABSOLUTE BASOPHIL: 0 CELLS/uL
  ABSOLUTE EOSINOPHIL: 0 CELLS/uL
  ABSOLUTE LYMPHOCYTE: 12123 CELLS/uL
  ABSOLUTE MONOCYTE: 372 CELLS/uL
  ABSOLUTE SEGMENTED NEUTROPHIL: 1505 CELLS/uL
  BASOPHIL: 0%
  EOSINOPHIL: 0%
  ERYTHROCYTE COUNT: 5.61 x10E6/uL
  HEMATOCRIT: 34.6%
  HEMOGLOBIN: 13.67 G/DL
  LEUKOCYTE COUNT: 14 x10E3/uL
  LYMPHOCYTE: 86.67%
  MEAN CORPUSCULAR HEMOGLOBIN: 24.47 pg
  MEAN CORPUSCULAR HEMOGLOBIN CONCENTRATION: 39.53 G/DL
  MEAN CORPUSCULAR VOLUME: 61.9 fL
  MONOCYTE: 2.67%
  NEUTROPHIL: 10.67%
  NUCLEATED RED BLOOD CELLS: 0.33 /100WBC
  PLATELET COUNT: 1267.33 x10E3/uL
  ALANINE AMINOTRANSFERASE: 52 u/L
  ALBUMIN: 4.13 G/DL
  ALKALINE PHOSPHATASE: 425.33 u/L
  ASPARTATE AMINOTRANSFERASE: 87 u/L
  BLOOD UREA NITROGEN: 15.67 mg/dL
  CARBON DIOXIDE: 26.67 mmol/L
  CHLORIDE: 101.33 MEQ/L
  CHOLESTEROL: 69 mg/dL
  CREATINE PHOSPHOKINASE: 308 u/L
  CREATININE: 0.17 mg/dL
  GLUCOSE: 148.33 mg/dL
  LACTATE DEHYDROGENASE: 190.67 u/L
  LIPASE: 9 u/L
  PHOSPHORUS: 12.47 mg/dL
  POTASSIUM: 6.99 MEQ/L
  SODIUM: 143.93 MEQ/L
  TOTAL BILIRUBIN: 0.17 mg/dL
  TOTAL PROTEIN: 5.8 G/DL
  URIC ACID: 1.77 mg/dL
[4]
  ABSOLUTE BASOPHIL: 0 CELLS/uL
  ABSOLUTE EOSINOPHIL: 0 CELLS/uL
  ABSOLUTE LYMPHOCYTE: 16690.33 CELLS/uL
  ABSOLUTE MONOCYTE: 278.67 CELLS/uL
  ABSOLUTE SEGMENTED NEUTROPHIL: 997.67 CELLS/uL
  BASOPHIL: 0%
  EOSINOPHIL: 0%
  ERYTHROCYTE COUNT: 5.66 x10E6/uL
  HEMATOCRIT: 34.53%
  HEMOGLOBIN: 14.03 G/DL
  LEUKOCYTE COUNT: 17.97 x10E3/uL
  LYMPHOCYTE: 93%
  MEAN CORPUSCULAR HEMOGLOBIN: 24.87 pg
  MEAN CORPUSCULAR HEMOGLOBIN CONCENTRATION: 40.63 G/DL
  MEAN CORPUSCULAR VOLUME: 61.17 fL
  MONOCYTE: 1.33%
  NEUTROPHIL: 5.67%
  NUCLEATED RED BLOOD CELLS: 0.67 /100WBC
  PLATELET COUNT: 1272 x10E3/uL
  ALANINE AMINOTRANSFERASE: 53.33 u/L
  ALBUMIN: 4.1 G/DL
  ALKALINE PHOSPHATASE: 315 u/L
  ASPARTATE AMINOTRANSFERASE: 72.33 u/L
  BLOOD UREA NITROGEN: 18.33 mg/dL
  CARBON DIOXIDE: 27.33 mmol/L
  CHLORIDE: 100.33 MEQ/L
  CHOLESTEROL: 84 mg/dL
  CREATINE PHOSPHOKINASE: 186.33 u/L
  CREATININE: 0.19 mg/dL
  GLUCOSE: 146 mg/dL
  LACTATE DEHYDROGENASE: 126.33 u/L
  LIPASE: 10 u/L
  PHOSPHORUS: 12.8 mg/dL
  POTASSIUM: 6.96 MEQ/L
  SODIUM: 145.2 MEQ/L
  TOTAL BILIRUBIN: 0.2 mg/dL
  TOTAL PROTEIN: 5.8 G/DL
  URIC ACID: 1.43 mg/dL
